Data reported in patent US8252723B2, “Substituted 1-(3-pyridinyl)pyrazol-4-ylacetic acids, processes for their preparation and their use as herbicides and plant growth regulators” (Bayer CropScience AG, priority 2006, dated 2012).

What was measured:
[1] = tested on: weed plants such as Lolium multiflorum, Amaranthus retroflexus, Sinapis alba, Stellaria media and Setaria viridis; assay: Pre-emergence effect on weeds (greenhouse pot test, visual scoring); type: in vivo; settings: pre-emergence method, application rate of 1 kg or less of active substance per hectare, visual scoring after 3 to 4 weeks vs untreated controls; read-out: herbicidal action (control)
Excerpt: Seeds or sections of rhizome from monocotyledonous and dicotyledonous weed plants were laid out in sandy loam soil in plastic pots, and covered with soil. The compounds according to the invention, formulated as wettable powders or emulsifiable concentrates, were then applied, in the form of aqueous suspensions or emulsions, at various dosages, onto the surface of the covering soil, at an application rate of 600 to 800 l of water/ha (converted).

[2] = tested on: weed plants such as Lolium multiflorum, Amaranthus retroflexus, Sinapis alba, Stellaria media and Setaria viridis; assay: Post-emergence effect on weeds (greenhouse pot test, visual scoring); type: in vivo; settings: application rate of 500 g or less of active substance per hectare, visual scoring after about 3 to 4 weeks vs untreated controls, read-out: herbicidal action (control)
[3] = tested on: summer wheat of the cultivar 'Triso'; assay: Plant growth regulation test: culm stabilization of crop plants; type: in vivo; settings: application rate of 30 to 300 g of active substance per hectare, treated at stage BBCH 31, culm length measured after ears had formed
In short: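 Wettable-powder formulation with adjuvant (1 l/ha) sprayed at 300 l water/ha onto pot-grown plants at BBCH 31, then kept outdoors. After ear formation culm length was measured; culm stabilization is expressed as percent of untreated control.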

| Compound | pest or weed control at up to 1000 g/ha [1] [%] | pest or weed control at up to 500 g/ha [2] [%] | longitudinal growth (culm length) of summer wheat [3] | melting point [°C] |
| --- | --- | --- | --- | --- |
| Cc1ccncc1-n1nc(C)c(CC(=O)OCC2CC2)c1-c1ccccc1 [Example 3-99, Cyclopropylmethyl [3-methyl-1-(4-methylpyridin-3-yl)-5-phenyl-1H-pyrazol-4-yl]acetate] | ≥ 70 | ≥ 70 | effectively shortened | – |
| C#CCOC(=O)Cc1c(C)nn(-c2cnccc2C)c1-c1ccccc1 [Example 3-76, Prop-2-yn-1-yl [3-methyl-1-(4-methylpyridin-3-yl)-5-phenyl-1H-pyrazol-4-yl]acetate] | ≥ 70 | ≥ 70 | effectively shortened | – |
| O=C(O)Cc1c(-c2ccccc2)nn(-c2cccnc2)c1-c1ccccc1 [Example 1-1, 3,5-diphenyl-1-(3-pyridyl)pyrazole-4-acetic acid] | ≥ 70 | ≥ 70 | effectively shortened | 172 |
| Cc1nn(-c2cccnc2)c(-c2cccc(Cl)c2)c1CC(=O)O [Example 1-17, [5-(3-Chlorophenyl)-3-methyl-1-pyridin-3-yl-1H-pyrazol-4-yl]acetic acid] | ≥ 70 | ≥ 70 | effectively shortened | – |
| Cc1ccncc1-n1nc(C)c(CC(=O)O)c1-c1ccccc1 [Example 1-10, [3-Methyl-1-(4-methylpyridin-3-yl)-5-phenyl-1H-pyrazol-4-yl]acetic acid] | ≥ 70 | ≥ 70 | effectively shortened | – |
| COC(=O)Cc1c(C)nn(-c2cnccc2C)c1-c1ccccc1 [Example 2-10, Methyl [3-methyl-1-(4-methylpyridin-3-yl)-5-phenyl-1H-pyrazol-4-yl]acetate] | ≥ 70 | ≥ 70 | effectively shortened | – |
| COC(=O)Cc1c(C#N)nn(-c2cccnc2)c1-c1ccc(Cl)cc1 [Example 2-147] | – | – | effectively shortened | – |
| COC(=O)Cc1c(C)nn(-c2cccnc2)c1-c1cccc(Cl)c1 [Example 2-17, Methyl [5-(3-chlorophenyl)-3-methyl-1-pyridin-3-yl-1H-pyrazol-4-yl]acetate] | ≥ 70 | ≥ 70 | effectively shortened | – |
| COC(=O)Cc1c(C)nn(-c2ccc(OC)nc2)c1-c1ccccc1 [Example 2-5] | – | – | effectively shortened | – |
| Cc1nn(-c2cccnc2)c(-c2ccccc2)c1CC(=O)OCc1ccccc1 [Example 3-50] | – | – | effectively shortened | – |
| COC(=O)Cc1c(C)nn(-c2cccnc2)c1-c1ccc(C(C)=O)cc1 [Example 2-121] | – | – | effectively shortened | – |
| CC#CCOC(=O)Cc1c(C)nn(-c2cccnc2)c1-c1ccc(Cl)cc1 [Example 3-118] | – | – | effectively shortened | – |
| Cc1cc(C)cc(-c2c(CC(=O)O)c(C)nn2-c2cnccc2C)c1 [Example 1-33] | – | – | effectively shortened | – |
| C#CCOC(=O)Cc1c(C)nn(-c2cccnc2)c1-c1ccc(Cl)cc1 [Example 3-55] | – | – | effectively shortened | – |
| C=C(Cl)COC(=O)Cc1c(C)nn(-c2cccnc2)c1-c1ccccn1 [Example 3-203] | – | – | effectively shortened | – |
| Cc1ccncc1-n1nc(C)c(CC(=O)O)c1-c1cccc(Cl)c1 [Example 1-21] | – | – | effectively shortened | – |
| COC(=O)Cc1c(C)nn(-c2cccnc2)c1-c1ccc(Cl)s1 [Example 2-60] | – | – | effectively shortened | – |

| Compound | pest or weed control at up to 1000 g/ha [1] [%] | pest or weed control at up to 500 g/ha [2] [%] | longitudinal growth (culm length) of summer wheat [3] | melting point [°C] |
| --- | --- | --- | --- | --- |
| COC(=O)Cc1c(C)nn(-c2cnccc2[S+](C)[O-])c1-c1ccc(Cl)cc1 (stereo not shown) [Example 2-64] | – | – | effectively shortened | – |
| CCCc1nn(-c2cccnc2)c(-c2ccc(Cl)cc2)c1CC(=O)OC [Example 2-89] | – | – | effectively shortened | – |
| C=CCCOC(=O)Cc1c(C)nn(-c2cccnc2)c1-c1ccccc1 [Example 3-180] | – | – | effectively shortened | – |
| Cc1cncc(-n2nc(C)c(CC(=O)O)c2-c2ccccc2)c1 [Example 1-50] | – | – | effectively shortened | – |
| COC(=O)Cc1c(C)nn(-c2cccnc2)c1-c1cccc(C(F)(F)F)c1 [Example 2-18] | – | – | effectively shortened | – |
| COC(=O)Cc1c(C)nn(-c2cnccc2C)c1-c1ccc(Cl)c(C(F)(F)F)c1 [Example 2-48] | – | – | effectively shortened | – |
| COC(=O)Cc1c(C=O)nn(-c2cccnc2)c1-c1ccc(Cl)cc1 [Example 2-165] | – | – | effectively shortened | – |
| COC(=O)Cc1cnn(-c2cnccc2C)c1-c1ccc(Cl)cc1 [Example 2-133] | – | – | effectively shortened | – |
| Cc1nn(-c2cccnc2)c(-c2ccc(Cl)cc2)c1CC(=O)OCC1CCCCC1 [Example 3-177] | – | – | effectively shortened | – |
| Cc1nn(-c2cccnc2)c(-c2ccccc2)c1CC(=O)O [Example 1-2, 3-methyl-5-phenyl-1-(3-pyridyl)pyrazole-4-acetic acid] | ≥ 70 | ≥ 70 | effectively shortened | 192 |
| COC(=O)Cc1c(C)nn(-c2cnccc2C)c1-c1cccc(Cl)c1 [Example 2-21] | – | – | effectively shortened | – |
| Cc1nn(-c2cccnc2)c(-c2ccccc2)c1CC(=O)OCC#CCCl [Example 3-109] | – | – | effectively shortened | – |
| O=C(O)Cc1c(C2CC2)nn(-c2cccnc2)c1-c1ccc(Cl)cc1 [Example 1-146] | – | – | effectively shortened | – |
| COc1ccc(-n2nc(C)c(CC(=O)O)c2-c2ccccc2)cn1 [Example 1-5] | – | – | effectively shortened | – |
| Cc1ccncc1-n1nc(C)c(CC(=O)O)c1-c1ccc(Cl)c(C(F)(F)F)c1 [Example 1-48] | – | – | effectively shortened | – |
| C=C(Cl)COC(=O)Cc1c(C)nn(-c2cccnc2)c1-c1cccs1 [Example 3-186] | – | – | effectively shortened | – |
| Cc1nn(-c2ccc(Cl)nc2)c(-c2ccccc2)c1CC(=O)O [Example 1-7] | – | – | effectively shortened | – |
